# Values quoted from earlier work as cited in US20120275998A1, “BIODEGRADABLE STENT COMPRISING AN ACID SCAVENGING AGENT” (priority 2009, published 2012).
smiles,measurement,setting,value
"OCCN(CCO)c1nc(N2CCCCC2)c2nc(N(CCO)CCO)nc(N3CCCCC3)c2n1 [Dipyridamole, 2,6-bis(dithioethanolamino)-4,8-dipiperidinopyrimido(5,4-d)pyrimidine]",Soluble (solvents),solvents in which the substance is soluble,"Ethanol, dimethyl sulfoxide"
same,Water solubility,water,slightly soluble in water
